Data from US20250099420A1, “SMALL MOLECULE MODULATORS OF GPR139 COMPLEX” (University of Florida Research Foundation, Incorporated, priority 2022, published 2025).
Where two headings read alike, the source gives them in different places.

Tests used:
parental HEK cells = assay: HEK parental Agonist Counterscreen Assay (non-transfected cells); type: cell-based; conditions: for Averaged Max % Response (±St. Dev.): activity relative to known control
Text: The high control for the agonist counterscreen was Forskolin not acetylcholine.

GPR139 = molecular target: T1, GPR139 (Homo sapiens, UniProt Q6DWJ6); assay: GPR139 Agonist titration / agonist counterscreen assay (calcium detection, HEK-GPR139 cells); type: cell-based; design: expressed in transfected cells; host or cells: HEK Aequorin cells, Maxcyte transient transfection; conditions: GPR139 Agonist Activity; for EC50: read-out: EC50; for Averaged Max % Response (±St. Dev.): activity relative to known control
T1 sequence (Q6DWJ6 1-353): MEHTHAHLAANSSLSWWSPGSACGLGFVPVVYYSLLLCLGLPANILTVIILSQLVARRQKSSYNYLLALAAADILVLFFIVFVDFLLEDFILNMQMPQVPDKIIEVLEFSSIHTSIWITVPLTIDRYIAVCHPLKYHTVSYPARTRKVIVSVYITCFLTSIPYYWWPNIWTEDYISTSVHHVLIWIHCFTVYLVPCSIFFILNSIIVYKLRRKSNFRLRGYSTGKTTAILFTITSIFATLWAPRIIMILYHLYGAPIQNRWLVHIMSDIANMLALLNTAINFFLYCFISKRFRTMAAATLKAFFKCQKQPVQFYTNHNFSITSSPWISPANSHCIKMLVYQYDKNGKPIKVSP
Experimental: GPR activity was assessed using a calcium detection assay. […] Negative control samples were treated with DMSO. […] Intracellular calcium was measured using Calcium 5.

[1] = HEK Agonist Activity section of Table 4 (parental HEK counterscreen)
[2] = Homo sapiens, HEK293, HEK Agonist Activity section of Table 4 (parental HEK counterscreen)
[3] = values printed in E-notation without unit
[4] = Homo sapiens, HEK293, HEK Agonist Activity, parental non-transfected HEK cells
[5] = HEK Agonist Activity, parental non-transfected HEK cells

Structure (SMILES) | Lipophilic Efficiency (logD) (parental HEK cells; HEK Agonist Activity section) | Lipophilic Efficiency (logP) (parental HEK cells; HEK Agonist Activity section) | Efficiency Ligand (GPR139) | Hill Slope (GPR139) | Lipophilic Efficiency (logD) (GPR139) | Lipophilic Efficiency (logP) (GPR139) | EC50 (GPR139; HEK-GPR139 cells) [nM] | Averaged Max % Response (±St. Dev.) (GPR139) [%] | Lipophilic Efficiency (logD) (GPR139; based on logD) | Lipophilic Efficiency (logP) (GPR139; based on logP) | Hill Slope (GPR139; fitted dose-response curve) | Efficiency Ligand (GPR139; ligand efficiency) | EC50 (GPR139; [3]) [nM] | EC50 (parental HEK cells; [1]) [µM] | Averaged Max % Response (±St. Dev.) (parental HEK cells; HEK Agonist Activity section) [%] | EC50 (parental HEK cells; [2]) [µM] | also measured
Cc1cccc(CNC(=O)Nc2ccc(-c3cn[nH]c3)cc2)c1.O=C(O)C(F)(F)F [SR-00000005301] | 1.56 | 1.56 | 0.40 | 0.94 | 3.26 | 3.26 | 281 | 86.84 ± 8.43 |  |  |  |  |  | > 14.1 | 8.29 ± 4.70 |  | 
O=C(NC1CC1)C1CC(Cc2cccc3ccccc23)=NO1 (stereo not drawn) [SR-01000188699] | 2.02 | 2.02 |  |  |  |  |  | 112.57 ± 11.99 | 4.37 | 4.37 | 1.05 | 0.46 | 63.8 |  | 4.63 ± 6.30 | > 14.1 | 
Cc1ccc(CCNC(=O)Cn2nc(-c3ccccc3)ccc2=O)cc1 [SR-01000145157] | 1.85 | 1.85 |  |  |  |  |  | 83.58 ± 17.45 | 3.85 | 3.85 | 0.58 | 0.37 | 140 | > 14.1 | 17.61 ± 4.99 |  | 
Cc1ccc(Br)cc1S(=O)(=O)NCCC(=O)NCCc1sccc1C [SR-01000101329] | 3.17 | 3.16 |  |  |  |  |  | 102.96 ± 12.58 | 5.16 | 5.15 | 0.79 | 0.38 |  |  | −2.50 ± 6.06 | > 14.1 | 
COc1ccc(CCn2nc(-c3cccnc3)[nH]c2=O)cc1 [SR-01000335115] | 2.33 | 2.33 | 0.38 | 1.29 | 3.37 | 3.37 | 1300 | 86.17 ± 9.84 |  |  |  |  |  |  | 12.86 ± 9.78 | > 14.1 | 
COc1ccc(CCNC(=O)c2cnc(N3CCCC3CO)s2)cc1 (stereo not drawn) [SR-01000652673] |  |  |  |  |  |  |  | 123.26 ± 12.43 | 5.68 | 5.68 | 0.93 | 0.44 | 11.5 |  |  |  | Lipophilic Efficiency (logD) (parental HEK cells; HEK Agonist Activity): 2.61; Lipophilic Efficiency (logP) (parental HEK cells; HEK Agonist Activity): 2.61; Averaged Max % Response (±St. Dev.) (parental HEK cells; HEK Agonist Activity): 3.95 ± 2.97%; EC50 (parental HEK cells; [4]): > 13.4 µM
CC(=O)N1CCSc2cc(S(=O)(=O)NC3CCC(C)CC3)ccc21 (stereo not drawn) [SR-01000141798] | 2.66 | 2.66 | 0.31 | 0.65 | 3.15 | 3.15 | 4600 | 62.31 ± 7.50 |  |  |  |  |  |  | 2.60 ± 1.15 | > 14.1 | 
COC(=O)c1ccc(CSc2nnc(N)s2)cc1 [SR-01000031964] | 2.26 | 2.26 | 0.51 | 1.27 | 4.00 | 4.00 | 290 | 89.11 ± 2.96 |  |  |  |  |  | > 16 | 13.73 ± 5.82 |  | 
COc1ccc(C2(C)NC(=O)N(CC(=O)Nc3cc(C)ccc3C)C2=O)cc1 (stereo not drawn) [SR-01000918716] |  |  |  |  |  |  |  | 111.04 ± 7.77 | 5.74 | 5.74 |  | 0.43 |  |  |  |  | Hill Slope (parental HEK cells; HEK Agonist Activity): 0.85; Lipophilic Efficiency (logD) (parental HEK cells; HEK Agonist Activity): 2.34; Lipophilic Efficiency (logP) (parental HEK cells; HEK Agonist Activity): 2.34; Averaged Max % Response (±St. Dev.) (parental HEK cells; HEK Agonist Activity): 92.04 ± 16.23%; EC50 (parental HEK cells; [5]): 5.5 µM

The next lines start with results.

Lipophilic Efficiency (logD) (parental HEK cells; HEK Agonist Activity section) | Lipophilic Efficiency (logP) (parental HEK cells; HEK Agonist Activity section) | Efficiency Ligand (GPR139) | Hill Slope (GPR139) | Lipophilic Efficiency (logD) (GPR139) | Lipophilic Efficiency (logP) (GPR139) | EC50 (GPR139; HEK-GPR139 cells) [nM] | Averaged Max % Response (±St. Dev.) (GPR139) [%] | Lipophilic Efficiency (logD) (GPR139; based on logD) | Lipophilic Efficiency (logP) (GPR139; based on logP) | Hill Slope (GPR139; fitted dose-response curve) | Efficiency Ligand (GPR139; ligand efficiency) | EC50 (GPR139; [3]) [nM] | Structure (SMILES) | EC50 (parental HEK cells; [1]) [µM] | Averaged Max % Response (±St. Dev.) (parental HEK cells; HEK Agonist Activity section) [%] | EC50 (parental HEK cells; [2]) [µM] | also measured
1.88 | 1.87 |  |  |  |  |  | 89.15 ± 7.00 | 4.06 | 4.05 | 1.10 | 0.34 | 94.4 | O=C(CCCOc1ccc(Cl)cc1Cl)NNC(=O)Cc1ccc2c(c1)OCCO2 [SR-01000065653] | > 14.1 | −8.07 ± 6.14 |  | 
2.43 | 2.43 |  |  |  |  |  | 99.00 ± 11.26 | 4.39 | 4.39 | 0.48 | 0.39 | 171 | Cc1ccc(SCC(=O)NNC(=O)CCC(=O)c2cccs2)cc1 [SR-01000069391] | > 15.5 | 12.32 ± 6.09 |  | 
1.65 | 1.65 | 0.26 | 0.69 | 2.57 | 2.57 | 1700 | 89.30 ± 20.10 |  |  |  |  |  | Cc1nn(-c2ccccc2)nc1C(=O)NNC(=O)CSCc1cccc2ccccc12 [SR-01000634249] | > 14.1 | 7.70 ± 7.23 |  | 
2.03 | 2.03 |  |  |  |  |  | 116.05 ± 3.28 | 4.18 | 4.18 | 0.54 | 0.38 | 108 | O=C(CN1C(=O)NC2(CCc3ccccc32)C1=O)Nc1cccc(Cl)c1 (stereo not drawn) [SR-01000069699] |  | 12.32 ± 5.16 | > 15.2 | 
2.60 | 2.54 |  |  |  |  |  | 97.49 ± 3.70 | 4.59 | 4.53 | 0.88 | 0.42 | 143 | CC(Oc1ccc(Cl)cc1Cl)C(=O)NNC(=O)c1ccncc1 (stereo not drawn) [SR-01000319951] |  | 7.14 ± 13.31 | > 14.1 | 
3.84 | 3.84 | 0.34 | 0.59 | 5.32 | 5.32 | 465 | 87.19 ± 17.95 |  |  |  |  |  | CC1(c2ccc3c(c2)OCO3)NC(=O)N(CC(=O)NC2CCCC2)C1=O (stereo not drawn) [SR-01000065547] |  | 2.31 ± 13.81 | > 14.1 | 
 |  |  |  |  |  |  | 115.59 ± 14.29 | 4.05 | 4.05 | 0.81 | 0.39 | 33.9 | COc1ccc(NC(=O)NCCOc2cccc3ccccc23)cc1OC [SR-01000223498] |  |  |  | Lipophilic Efficiency (logD) (parental HEK cells; HEK Agonist Activity): 1.43; Lipophilic Efficiency (logP) (parental HEK cells; HEK Agonist Activity): 1.43; Averaged Max % Response (±St. Dev.) (parental HEK cells; HEK Agonist Activity): 15.10 ± 2.28%; EC50 (parental HEK cells; [4]): > 14.1 µM
1.69 | 1.66 | 0.30 | 1.91 | 2.77 | 2.74 | 1200 | 81.17 ± 17.61 |  |  |  |  |  | COc1ccc(CC(=O)NNC(=O)C(C)Oc2ccc(Cl)cc2Cl)cc1OC (stereo not drawn) [SR-01000312779] |  | 13.34 ± 1.65 | > 14.1 | 
 |  |  |  |  |  |  | 116.62 ± 3.81 | 3.89 | 3.71 | 0.26 | 0.23 | 40.1 | O=C(NCCc1ccc(Cl)cc1)c1ccc(N2CC3CC(C2)c2cccc(=O)n2C3)c(NS(=O)(=O)c2ccc3c(c2)OCCO3)c1 (stereo not drawn) [SR-01000583473] |  |  |  | Hill Slope (parental HEK cells; HEK Agonist Activity): 0.45; Lipophilic Efficiency (logD) (parental HEK cells; HEK Agonist Activity): 1.64; Lipophilic Efficiency (logP) (parental HEK cells; HEK Agonist Activity): 1.46; Averaged Max % Response (±St. Dev.) (parental HEK cells; HEK Agonist Activity): 54.64 ± 8.92%; EC50 (parental HEK cells; [5]): 7.2 µM
2.04 | 2.04 | 0.31 | 0.85 | 3.57 | 3.57 | 416 | 109.30 ± 18.80 |  |  |  |  |  | CNc1ccc(CCNC(=O)Cn2c3ccccc3c3nc(=O)cc(C)n32)cc1 [SR-01000139601] |  | −14.37 ± 9.70 | > 14.1 | 
